For five compounds, inhibition and IC50 results are on record in patent US7579356B2, “Thia-tetraazaacenaphthylene kinase inhibitors” (Janssen Pharmaceutica NV, priority 2005, dated 2009).

The target of one experiment is T1, Lyn kinase (human) (Homo sapiens, UniProt P07948).
T1 construct: purchased Upstate Biotechnology, Lake Placid, N.Y
The experiment in a line: Lyn Kinase Assay. The settings on record: test concentration of 2 μM. The experiment is classed as biochemical. The method in brief: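 Radiometric filter-binding assay with recombinant human Lyn, poly(Glu,Tyr) substrate (0.1 mg/mL final), 5 μM ATP plus γ-33P-ATP in MOPS pH 7.5/Mg acetate buffer; 40 min at 30 °C, stopped with phosphoric acid, counted by scintillation. Reported as percent inhibition at 2 μM, with IC50 (μM) where determined.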

For another experiment, the system named is HCT-116 colon carcinoma. The experiment in a line: Cell Proliferation Inhibition Assay, HCT-116 (14C-thymidine). It counts as cell-based. The settings on record: Homo sapiens, HCT-116 cell proliferation. An excerpt: Cell Proliferation Inhibition Assay
The ability of a test compound to inhibit unregulated cell proliferation may be determined by measuring incorporation of ^14C-labelled thymidine into newly synthesized DNA within cell lines derived from carcinomas originating from several tissues. Accordingly, the effect of a test compound on proliferation of cells with a variety of phenotypes may be determined.
Carcinoma cell lines used include the HeLa cervical adenocarcinoma from the American Type Culture Collection (ATCC Cat. #CCL2), A375 malignant melanoma (ATCC Cat. #CRL-1619), HCT-116 colon carcinoma (ATCC Cat. #CCL-247), SKBR3 breast carcinoma (ATCC Cat. #HTB-30) and BT474 breast carcinoma (ATCC Cat. #HTB-20).
The carcinoma cells were trypsinized and counted. The cells (3000-8000 count) were added to each well of a 96-well CytoStar tissue culture treated scintillating microplate (Amersham #RPNQ0160) in complete medium (100 μL) and the plate was then incubated in complete medium for 24 hrs at 37° C. in an inert atmosphere containing 5% CO2.
Test compound (1 μL) in 100% DMSO was added to the plate test-wells with DMSO only added to control-wells. The plate was incubated in complete medium for a second 24 hr period at 37° C. in an atmosphere containing 5% CO2.
An aliquot of a solution of Methyl ^14C-thymidine (56 mC/mmol) (NEN #NEC568 or AMersham #CFA532) and complete medium (20 uL to provide 0.2 μCl/well) was then added to each well and the plate was incubated for a third 24 hr period at 37° C. in an atmosphere containing 5% CO2.
The plate contents were then discarded, the plate washed twice with PBS (200 μL) and then PBS (200 μL) was added to each well. The plate was sealed and the degree of methyl ^14C-thymidine incorporation was quantified on a Packard Top Count.
Cell proliferation of the Hela cell line was measured using the ATP-Lite method as described in the ATP Lite Kit (Perkin-Elmer Kit Number 6106941) or the C^14 method as described above. Cell proliferation of the other cell lines was measured using the C^14 method.

A further experiment addresses T2, EGFR (Homo sapiens, UniProt P00533).
T2 construct: The intracellular portion of EGFR started at nucleotide 2189 (corresponding to amino acid 667) and ended at the termination codon; made in house; host or cells: Sf9 insect cells (baculovirus)
The experiment in a line: EGFR Kinase Assay. The experiment is classed as biochemical. The settings on record: GST-EGFR, ATP 5 μM. In a few lines:
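Potency came from triplicate 16-point half-log titrations starting at 200 uM, with IC50 fitted from % inhibition against log concentration, or % inhibition at 2 μM otherwise. Reaction: Sf9-made GST–EGFR cytoplasmic region (aa 667 onward), biotin-polyGluTyr, 5 μM ATP with 33P tracer, pH 8.0 Tris/Mg/vanadate/DTT, 30 °C for 1 h; captured on streptavidin Flashplates and counted.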

T1 sequence (P07948 whole entry): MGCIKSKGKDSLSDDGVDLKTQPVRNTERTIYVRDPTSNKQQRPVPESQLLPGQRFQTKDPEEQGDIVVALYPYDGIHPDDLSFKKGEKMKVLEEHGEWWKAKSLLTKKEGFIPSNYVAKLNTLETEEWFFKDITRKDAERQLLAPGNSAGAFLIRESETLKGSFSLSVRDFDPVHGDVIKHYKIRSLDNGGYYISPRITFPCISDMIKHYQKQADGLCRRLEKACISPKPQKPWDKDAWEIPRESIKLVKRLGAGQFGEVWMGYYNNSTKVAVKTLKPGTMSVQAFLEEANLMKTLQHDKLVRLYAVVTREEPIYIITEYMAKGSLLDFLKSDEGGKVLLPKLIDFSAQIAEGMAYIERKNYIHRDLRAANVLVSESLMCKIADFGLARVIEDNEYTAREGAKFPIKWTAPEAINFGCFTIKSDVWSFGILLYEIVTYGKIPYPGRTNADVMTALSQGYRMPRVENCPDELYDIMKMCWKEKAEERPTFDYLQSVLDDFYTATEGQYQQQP
T2 sequence (P00533 669-1210 limits assumed): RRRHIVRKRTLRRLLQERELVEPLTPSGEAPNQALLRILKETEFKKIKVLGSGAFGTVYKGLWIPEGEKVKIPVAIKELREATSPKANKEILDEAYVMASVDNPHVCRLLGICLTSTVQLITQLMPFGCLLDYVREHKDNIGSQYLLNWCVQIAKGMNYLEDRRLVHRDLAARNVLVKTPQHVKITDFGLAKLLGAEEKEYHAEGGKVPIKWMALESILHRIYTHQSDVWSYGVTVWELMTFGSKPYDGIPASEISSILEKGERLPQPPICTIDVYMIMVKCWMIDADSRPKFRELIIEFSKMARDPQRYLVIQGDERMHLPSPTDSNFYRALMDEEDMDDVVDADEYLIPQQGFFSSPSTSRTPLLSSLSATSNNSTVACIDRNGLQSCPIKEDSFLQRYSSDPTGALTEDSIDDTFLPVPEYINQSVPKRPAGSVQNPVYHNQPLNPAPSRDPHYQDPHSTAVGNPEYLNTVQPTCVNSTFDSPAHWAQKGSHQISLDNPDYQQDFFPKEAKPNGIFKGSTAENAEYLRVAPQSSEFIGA

Broadly, the inhibition is the drop in the measured response relative to a control, in per cent. One may read the IC50 as the point on the concentration scale where inhibition reaches its midpoint. A low value points to greater potency. As for `COc1ccc(NC(=O)c2sc3ncnc4c3c2NC(=O)N4c2ccc(OCc3ccccn3)c(Cl)c2)cc1OC` [Cpd 48, 5-[3-chloro-4-(pyridin-2-ylmethoxy)-phenyl]-4-oxo-4,5-dihydro-3H-1-thia-3,5,6,8-tetraaza-acenaphthylene-2-carboxylic acid (3,4-dimethoxy-phenyl)-amide], at Lyn kinase (human), the inhibition at 2 µM is 14%. Besides, the IC50 in the experiment on HCT-116 colon carcinoma worked out at 30.4 µM; at EGFR, 0.061 µM.
For the compound `Cc1ccc(N2C(=O)Nc3c(C(=O)NC4CCN(C)CC4)sc4ncnc2c34)cc1Br` [Cpd 116, 5-(3-bromo-4-methyl-phenyl)-4-oxo-4,5-dihydro-3H-1-thia-3,5,6,8-tetraaza-acenaphthylene-2-carboxylic acid (1-methyl-piperidin-4-yl)-amide], at Lyn kinase (human), the inhibition at 2 µM is -2%. The 50% inhibitory concentration (IC50) in the experiment on HCT-116 colon carcinoma was 10 µM; against EGFR, 0.146 µM.
Regarding `CN1CCC(NC(=O)c2sc3ncnc4c3c2NC(=O)N4c2ccc(Oc3ccc(F)cc3)cc2)CC1` [Cpd 118, 5-[4-(4-fluoro-phenoxy)-phenyl]-4-oxo-4,5-dihydro-3H-1-thia-3,5,6,8-tetraaza-acenaphthylene-2-carboxylic acid (1-methyl-piperidin-4-yl)-amide], the inhibition at 2 µM on Lyn kinase (human) worked out at 12%. Besides, the IC50 in the experiment on HCT-116 colon carcinoma was 10 µM; on EGFR, 0.132 µM.
Regarding `CC(C)(C)OC(=O)N1CCC(NC(=O)c2sc3ncnc4c3c2NC(=O)N4c2ccc3c(ccn3Cc3cccc(F)c3)c2)CC1` [Cpd 91, 4-({5-[1-(3-fluoro-benzyl)-1H-indol-5-yl]-4-oxo-4,5-dihydro-3H-1-thia-3,5,6,8-tetraaza-acenaphthylene-2-carbonyl}-amino)-piperidine-1-carboxylic acid tert-butyl ester], the inhibition at 2 µM against Lyn kinase (human) was determined as 7%. Moreover, the values for the IC50 in the experiment with HCT-116 colon carcinoma and on EGFR were 10 µM and 0.168 µM, respectively.
In the case of `O=C(O)c1sc2ncnc3c2c1NC(=O)N3c1ccc(OCc2ccccn2)c(Cl)c1` [Cpd 38, 5-[3-chloro-4-(pyridin-2-ylmethoxy)-phenyl]-4-oxo-4,5-dihydro-3H-1-thia-3,5,6,8-tetraaza-acenaphthylene-2-carboxylic acid], on Lyn kinase (human), the inhibition at 2 µM was -16%. The values for the IC50 in the experiment with HCT-116 colon carcinoma and against EGFR were 100 µM and 0.92 µM, respectively.
